Assay results: article PMC12715762, “Discovery of VU6052254: A Novel, Potent M1 Positive Allosteric Modulator” (ACS Chemical Neuroscience, 2025)

How the values were obtained:
[1] = target: Muscarinic M2 (Homo sapiens, UniProt P08172); assay: Eurofins radioligand binding
[2] = test system: Glutamate, NMDA, Glycine; assay: Eurofins radioligand binding; details: Rat
[3] = satellite IP PK study, brain exposure; assay type: in vivo; details: C57Bl6 mice, 30% captisol
Text: These effects were absent when performed in M1 KO mice, confirming that these AEs are in fact M1-mediated. […] Total brain drug levels correlate better with PD efficacy ,− , versus free drug levels in brain, as the arbitrarily selected EC20 value for the in vitro PAM EC50 potency determination likely underestimates endogenous ACh tone. Thus, there is a significant therapeutic index for PAM 7 from this assay, and robust target-mediated convulsions were not present. To assess peripheral cholinergic toxicity, a modified Irwin neurological battery was performed to score autonomic or somatosensory side effects (Figure ). […] Still, if the dose and exposure required for efficacy afforded the appropriate therapeutic window, then PAM 7 could still advance.

[4] = test system: mice; assay: modified Irwin neurological test battery; assay type: in vivo, mouse; details: result in words
Experimental: To assess peripheral cholinergic toxicity, a modified Irwin neurological battery was performed to score autonomic or somatosensory side effects (Figure ).

[5] = test system: Phorbol Ester; assay: Eurofins radioligand binding; details: Mouse
[6] = test system: 4 strain; assay: AMES assay (4 strain, with and without S9); assay type: cell-based
[7] = plasma protein binding, equilibrium dialysis (dog); assay type: in vitro ADME; details: pH 7.4, dog (d), read-out: fu,plasma
Experimental: (§1) Plasma protein binding and Brain homogenate binding: Determination of fraction unbound (f u) in plasma was conducted in vitro via equilibrium dialysis using HTDialysis (HTD) membrane plates. The top half of the plate was filled with 100 uL of Dubelco’s Phosphate Buffered Saline, pH 7.4 (DPBS). Compounds were diluted into plasma from each species (5 µM final concentration), which was aliquoted in triplicate to the ‘bottom half’ of the prepared HTD plate wells. The HTD plate was sealed and incubated for 6 hours at 37 °C. Following incubation, each well (both top and bottom halves) were transferred (20 µL) to the corresponding wells of a 96-shallow-well (V-bottom) plate. […]
(§2) The unbound fraction (f u) was calculated following the equation below, and mean values for each species were calculated from 3 replicates.
(§3) A similar approach was used to determine the degree of brain homogenate binding, which employed the same methodology and procedure with the following modifications: 1) a final compound concentration of 1 μM was used, 2) naïve rat brains were homogenized in DPBS (1:3 composition of brain: DPBS, w/w) using a Mini-Bead Beater™ machine in order to obtain brain homogenate, which was then treated in the same manner as the plasma samples in the previously described plasma protein binding assay. Fraction unbound for both plasma and brain samples was determined using Equation 4. […]

[8] = target: Serotonin (5-HT3) (Homo sapiens, UniProt P46098); assay: Eurofins radioligand binding
[9] = plasma protein binding, equilibrium dialysis (cyno); assay type: in vitro ADME; details: cynomolgus monkey, pH 7.4, cyno (c), read-out: fu,plasma
Experimental: as §1, §2, §3

[10] = target: Sigma σ1 (Homo sapiens, UniProt Q99720); assay: Eurofins radioligand binding
[11] = target: Cannabinoid CB1 (Homo sapiens, UniProt P21554); assay: Eurofins radioligand binding
[12] = rat oral dose escalation PK study; assay type: in vivo; details: for AUC(0-t) / Cmax / AUC / Tmax: Sprague-Dawley, plasma; for Cmax / AUC / Tmax: rat, po
Experimental: Pharmacokinetic profiles in rats following oral single escalating doses Single escalating oral dosing in Sprague-Dawley rats was performed at Frontage Laboratories according to their non-GLP Standard Operating Procedure and IACUC protocols. In short, […]
arterial blood was collected from a femoral artery catheter, and compound concentration was determined in plasma by LC-MS/MS following their non-GLP protocol. PK parameters were determined using Phoenix WinNonlin software (version 6.3). […]

[13] = target: Dopamine D2S (Homo sapiens, UniProt P14416); assay: Eurofins radioligand binding
[14] = target: Serotonin (5-HT2B) (Homo sapiens, UniProt P41595); assay: Eurofins radioligand binding
[15] = target: Endothelin ETB (Homo sapiens, UniProt P24530); assay: Eurofins radioligand binding
[16] = target: Bradykinin B2 (Homo sapiens, UniProt P30411); assay: Eurofins radioligand binding
[17] = target: Prostanoid EP4 (Homo sapiens, UniProt P35408); assay: Eurofins radioligand binding
[18] = target: Neuropeptide Y Y2 (Homo sapiens, UniProt P49146); assay: Eurofins radioligand binding
[19] = target: CYP 2C8 (Homo sapiens, UniProt P10632); assay: CYP450 inhibition; assay type: in vitro ADME
[20] = target: T1, hERG (Homo sapiens, UniProt Q12809); assay: functional hERG manual patch clamp (MPC) assay; assay type: cell-based
T1 construct: Charles River

[21] = target: Dopamine D3 (Homo sapiens, UniProt P35462); assay: Eurofins radioligand binding
[22] = 10 mg/kg, rat PO 10 mpk, 10% Tween
[23] = 10 mg/kg, rat PO 10 mpk, 100% PEG
[24] = 30 mg/kg, rat PO 30 mpk, 10% Tween
[25] = 30 mg/kg, rat PO 30 mpk, 100% PEG
[26] = 100 mg/kg, rat PO 100 mpk, 10% Tween
[27] = 100 mg/kg, rat PO 100 mpk, 100% PEG

Sequence of Dopamine D2S (P14416 1-414 isoform P14416-2): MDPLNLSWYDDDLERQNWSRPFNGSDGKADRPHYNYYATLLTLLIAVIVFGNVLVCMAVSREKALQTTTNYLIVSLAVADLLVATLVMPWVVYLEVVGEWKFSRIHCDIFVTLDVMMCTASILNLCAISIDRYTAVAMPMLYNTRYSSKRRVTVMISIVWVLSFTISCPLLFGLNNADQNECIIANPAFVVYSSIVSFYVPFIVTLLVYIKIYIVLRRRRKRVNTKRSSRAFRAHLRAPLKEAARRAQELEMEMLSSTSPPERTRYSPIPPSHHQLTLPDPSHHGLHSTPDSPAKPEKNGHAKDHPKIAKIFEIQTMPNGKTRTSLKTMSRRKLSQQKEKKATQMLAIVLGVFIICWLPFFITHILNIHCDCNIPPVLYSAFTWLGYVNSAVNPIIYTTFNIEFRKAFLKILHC
Sequence of Cannabinoid CB1 (P21554 whole entry): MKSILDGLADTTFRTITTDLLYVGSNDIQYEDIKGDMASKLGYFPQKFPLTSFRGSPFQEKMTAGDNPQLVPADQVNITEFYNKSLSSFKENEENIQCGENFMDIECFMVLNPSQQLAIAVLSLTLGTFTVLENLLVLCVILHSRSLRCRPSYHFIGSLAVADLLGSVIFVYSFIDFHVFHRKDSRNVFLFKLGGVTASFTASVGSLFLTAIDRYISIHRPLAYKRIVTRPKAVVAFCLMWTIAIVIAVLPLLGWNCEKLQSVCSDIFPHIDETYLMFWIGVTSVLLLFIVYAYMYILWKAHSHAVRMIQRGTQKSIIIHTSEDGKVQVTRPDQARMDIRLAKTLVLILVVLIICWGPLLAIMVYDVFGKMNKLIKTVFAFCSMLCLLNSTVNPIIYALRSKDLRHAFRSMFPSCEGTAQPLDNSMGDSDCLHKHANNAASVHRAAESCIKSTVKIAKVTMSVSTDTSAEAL
Sequence of Endothelin ETB (P24530 27-442): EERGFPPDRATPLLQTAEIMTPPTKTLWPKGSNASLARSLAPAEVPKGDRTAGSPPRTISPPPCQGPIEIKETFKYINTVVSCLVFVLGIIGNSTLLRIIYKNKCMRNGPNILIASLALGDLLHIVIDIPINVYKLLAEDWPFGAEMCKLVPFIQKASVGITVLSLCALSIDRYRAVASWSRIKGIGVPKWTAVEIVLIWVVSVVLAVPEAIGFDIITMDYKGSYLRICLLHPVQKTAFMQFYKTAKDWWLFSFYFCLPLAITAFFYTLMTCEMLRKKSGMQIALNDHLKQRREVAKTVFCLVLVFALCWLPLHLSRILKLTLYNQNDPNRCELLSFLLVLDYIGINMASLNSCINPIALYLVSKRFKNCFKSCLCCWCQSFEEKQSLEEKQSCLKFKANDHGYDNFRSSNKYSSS
Sequence of Dopamine D3 (P35462 whole entry): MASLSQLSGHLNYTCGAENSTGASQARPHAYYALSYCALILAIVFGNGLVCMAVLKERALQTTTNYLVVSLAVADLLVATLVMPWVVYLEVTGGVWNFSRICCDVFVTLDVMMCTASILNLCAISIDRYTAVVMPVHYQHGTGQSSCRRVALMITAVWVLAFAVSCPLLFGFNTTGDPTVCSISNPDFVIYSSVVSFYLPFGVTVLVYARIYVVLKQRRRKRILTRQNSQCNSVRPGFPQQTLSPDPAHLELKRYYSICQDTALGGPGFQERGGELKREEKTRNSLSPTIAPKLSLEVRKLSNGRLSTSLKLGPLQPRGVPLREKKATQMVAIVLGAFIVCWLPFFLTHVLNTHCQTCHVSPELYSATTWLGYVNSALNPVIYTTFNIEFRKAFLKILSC
Sequence of Serotonin (5-HT3) (P46098 24-478): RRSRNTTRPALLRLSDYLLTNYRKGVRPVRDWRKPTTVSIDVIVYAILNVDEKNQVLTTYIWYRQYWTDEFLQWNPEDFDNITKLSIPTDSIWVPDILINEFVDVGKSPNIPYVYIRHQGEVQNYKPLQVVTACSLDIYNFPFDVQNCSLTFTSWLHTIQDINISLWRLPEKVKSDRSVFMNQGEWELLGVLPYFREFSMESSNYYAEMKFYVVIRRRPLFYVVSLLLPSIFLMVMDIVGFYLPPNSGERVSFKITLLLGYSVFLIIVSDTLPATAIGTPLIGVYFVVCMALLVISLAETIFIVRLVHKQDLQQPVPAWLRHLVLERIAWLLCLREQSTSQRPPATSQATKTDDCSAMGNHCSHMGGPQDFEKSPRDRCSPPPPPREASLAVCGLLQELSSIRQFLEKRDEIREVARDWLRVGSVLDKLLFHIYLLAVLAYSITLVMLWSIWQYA
Sequence of Serotonin (5-HT2B) (P41595 whole entry): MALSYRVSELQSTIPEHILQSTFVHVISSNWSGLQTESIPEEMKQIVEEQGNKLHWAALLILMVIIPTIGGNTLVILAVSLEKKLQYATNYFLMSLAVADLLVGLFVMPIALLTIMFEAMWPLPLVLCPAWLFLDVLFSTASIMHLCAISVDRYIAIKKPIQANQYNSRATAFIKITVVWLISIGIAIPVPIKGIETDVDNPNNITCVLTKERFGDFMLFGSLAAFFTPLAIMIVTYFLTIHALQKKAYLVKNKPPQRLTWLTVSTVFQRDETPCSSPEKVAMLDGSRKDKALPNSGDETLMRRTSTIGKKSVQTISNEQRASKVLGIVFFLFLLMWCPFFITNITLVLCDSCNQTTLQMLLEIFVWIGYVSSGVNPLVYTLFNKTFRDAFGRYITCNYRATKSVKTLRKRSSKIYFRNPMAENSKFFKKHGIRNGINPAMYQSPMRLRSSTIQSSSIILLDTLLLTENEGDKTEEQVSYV
Sequence of CYP 2C8 (P10632 whole entry): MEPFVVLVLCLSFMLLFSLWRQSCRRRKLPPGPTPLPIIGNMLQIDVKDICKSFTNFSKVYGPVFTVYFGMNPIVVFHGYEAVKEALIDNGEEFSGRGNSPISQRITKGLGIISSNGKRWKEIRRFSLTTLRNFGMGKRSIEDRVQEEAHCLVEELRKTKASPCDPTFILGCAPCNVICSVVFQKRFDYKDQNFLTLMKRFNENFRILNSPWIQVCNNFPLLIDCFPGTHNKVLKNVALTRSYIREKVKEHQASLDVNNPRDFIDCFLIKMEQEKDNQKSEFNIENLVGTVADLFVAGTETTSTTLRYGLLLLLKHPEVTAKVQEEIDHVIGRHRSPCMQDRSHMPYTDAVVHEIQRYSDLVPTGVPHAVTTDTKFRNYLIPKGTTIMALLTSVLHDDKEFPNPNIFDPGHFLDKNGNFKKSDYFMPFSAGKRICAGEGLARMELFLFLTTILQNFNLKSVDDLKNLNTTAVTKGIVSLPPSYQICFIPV
T1 sequence (Q12809 whole entry): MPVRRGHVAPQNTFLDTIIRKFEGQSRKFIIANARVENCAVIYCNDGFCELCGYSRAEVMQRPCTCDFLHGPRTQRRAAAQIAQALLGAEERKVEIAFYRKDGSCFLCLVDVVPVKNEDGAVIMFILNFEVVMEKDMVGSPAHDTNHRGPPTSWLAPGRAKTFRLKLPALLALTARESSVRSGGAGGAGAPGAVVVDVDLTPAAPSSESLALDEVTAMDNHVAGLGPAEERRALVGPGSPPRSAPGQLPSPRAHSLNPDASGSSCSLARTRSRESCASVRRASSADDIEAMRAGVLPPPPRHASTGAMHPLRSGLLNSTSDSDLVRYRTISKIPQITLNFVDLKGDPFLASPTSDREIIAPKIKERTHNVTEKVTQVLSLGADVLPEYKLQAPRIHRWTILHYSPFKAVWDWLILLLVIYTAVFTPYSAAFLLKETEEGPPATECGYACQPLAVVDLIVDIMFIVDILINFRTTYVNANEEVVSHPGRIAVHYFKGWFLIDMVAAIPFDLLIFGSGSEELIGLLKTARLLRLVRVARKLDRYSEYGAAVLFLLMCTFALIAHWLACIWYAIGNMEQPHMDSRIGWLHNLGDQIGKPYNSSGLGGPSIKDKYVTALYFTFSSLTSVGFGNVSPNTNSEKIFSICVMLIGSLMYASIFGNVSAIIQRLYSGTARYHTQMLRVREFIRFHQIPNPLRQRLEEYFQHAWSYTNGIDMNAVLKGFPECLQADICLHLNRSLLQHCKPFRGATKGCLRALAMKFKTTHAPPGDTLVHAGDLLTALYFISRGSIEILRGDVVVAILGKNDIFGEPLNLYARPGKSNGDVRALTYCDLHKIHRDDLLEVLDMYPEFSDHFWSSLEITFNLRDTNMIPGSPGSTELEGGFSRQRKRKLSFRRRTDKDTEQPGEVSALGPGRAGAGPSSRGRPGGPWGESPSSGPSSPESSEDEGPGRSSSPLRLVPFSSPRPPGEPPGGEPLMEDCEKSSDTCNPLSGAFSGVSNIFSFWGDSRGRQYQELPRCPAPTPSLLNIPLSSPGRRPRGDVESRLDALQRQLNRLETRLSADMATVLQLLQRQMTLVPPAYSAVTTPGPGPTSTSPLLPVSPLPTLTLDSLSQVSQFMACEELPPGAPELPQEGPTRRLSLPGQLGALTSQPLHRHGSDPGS
Sequence of Neuropeptide Y Y2 (P49146 whole entry): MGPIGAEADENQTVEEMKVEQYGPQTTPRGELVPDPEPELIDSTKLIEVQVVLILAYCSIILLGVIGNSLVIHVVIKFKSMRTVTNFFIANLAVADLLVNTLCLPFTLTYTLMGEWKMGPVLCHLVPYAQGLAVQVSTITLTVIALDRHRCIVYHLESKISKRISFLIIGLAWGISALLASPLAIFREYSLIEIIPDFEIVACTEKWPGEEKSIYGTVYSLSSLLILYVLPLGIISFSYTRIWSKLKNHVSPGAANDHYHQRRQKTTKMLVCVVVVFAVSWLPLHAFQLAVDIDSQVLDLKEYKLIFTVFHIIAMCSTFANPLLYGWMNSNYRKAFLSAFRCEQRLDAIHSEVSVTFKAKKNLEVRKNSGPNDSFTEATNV
Sequence of Sigma σ1 (Q99720 whole entry): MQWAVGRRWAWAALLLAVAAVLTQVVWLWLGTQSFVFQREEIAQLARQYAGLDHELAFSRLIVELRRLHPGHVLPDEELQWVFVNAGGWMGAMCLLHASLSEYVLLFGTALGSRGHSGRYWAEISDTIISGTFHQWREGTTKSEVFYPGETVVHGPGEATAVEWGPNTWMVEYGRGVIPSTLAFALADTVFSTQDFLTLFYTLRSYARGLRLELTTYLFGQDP

Q: With Cn1cc2c(-c3cc(F)c(CN4Cc5ncccc5C4=O)c(F)c3)ccc(C(C)(C)O)c2n1 [compound 7] as the compound, how does the inhibition at 10 µM [1] read?
A: Its inhibition at 10 µM is 3%.

Q: What about the “% Inhibition at 10 µM” value [2] of the same compound?
A: Its value is -9%.

Q: What about the total brain exposure ([3]; 56.6 mg/kg IP) of the same compound?
A: The total brain exposure was 29.8 µM.

Q: And the total brain exposure ([3]; 100 mg/kg IP)?
A: Its total brain exposure is 42.2 µM.

Q: What about the “adverse effects / SLUDGE in modified Irwin battery” value (“adverse effects / SLUDGE” for short) ([4]; 56.6 mg/kg IP, 6 h time course) of the same compound?
A: The value was “minimal adverse effects or SLUDGE were noted”.

Q: What about the “adverse effects / SLUDGE” value ([4]; 56.6 mg/kg IP, 6 h time course, listed as VU6052254) of the same compound?
A: The value was “minimal adverse cholinergic events (SLUDGE) were noted”.

Q: And the “adverse effects / SLUDGE” value ([4]; 100 mg/kg IP)?
A: The value was “more pronounced adverse effects seen”.

Q: What about the “adverse effects / SLUDGE” value ([4]; 100 mg/kg IP, listed as VU6052254) of the same compound?
A: Its value is “adverse cholinergic events (SLUDGE) were noted”.

Q: What about the “% Inhibition at 10 µM” value [5] of the same compound?
A: The value was 12%.

Q: What about the AMES assay result [6] of the same compound?
A: The AMES assay result was “negative”.

Q: And the fraction unbound at 6 h, 5 µM [7]?
A: Its fraction unbound at 6 h, 5 µM is 0.117.

Q: What about the inhibition at 10 µM [8] of the same compound?
A: Its inhibition at 10 µM is -14%.

Q: And the fraction unbound at 6 h, 5 µM [9]?
A: The fraction unbound at 6 h, 5 µM was 0.06.

Q: What about the inhibition at 10 µM [10] of the same compound?
A: The inhibition at 10 µM was 6%.

Q: What about the inhibition at 10 µM [11] of the same compound?
A: Its inhibition at 10 µM is 25%.

Q: And the AUC(0-t) ([12]; rat PO 10 mg/kg, 10% aqueous Tween 80 suspension)?
A: The AUC(0-t) was 23800 ng·h/mL.

Q: What about the AUC(0-t) ([12]; rat PO 30 mg/kg, 10% aqueous Tween 80 suspension) of the same compound?
A: Its AUC(0-t) is 66500 ng·h/mL.

Q: What about the AUC(0-t) ([12]; rat PO 100 mg/kg, 10% aqueous Tween 80 suspension) of the same compound?
A: Its AUC(0-t) is 96200 ng·h/mL.

Q: And the Cmax ([12]; 10 mg/kg, rat PO 10 mg/kg, 10% aqueous Tween 80 suspension)?
A: Its Cmax is 2340 ng/mL.

Q: What about the AUC [12, 22] of the same compound?
A: The AUC was 23800 ng·h/mL.

Q: And the Tmax [12, 22]?
A: The Tmax was 2.17 h.

Q: And the AUC [12, 23]?
A: Its AUC is 20600 ng·h/mL.

Q: And the Cmax [12, 23]?
A: The Cmax was 2390 ng/mL.

Q: And the Tmax [12, 23]?
A: Its Tmax is 3.33 h.

Q: And the Cmax ([12]; 30 mg/kg, rat PO 30 mg/kg, 10% aqueous Tween 80 suspension)?
A: Its Cmax is 7640 ng/mL.

Q: And the AUC [12, 24]?
A: Its AUC is 66700 ng·h/mL.

Q: What about the Tmax [12, 24] of the same compound?
A: The Tmax was 2.67 h.

Q: What about the AUC [12, 25] of the same compound?
A: The AUC was 115000 ng·h/mL.

Q: What about the Cmax [12, 25] of the same compound?
A: Its Cmax is 12200 ng/mL.

Q: What about the Tmax [12, 25] of the same compound?
A: Its Tmax is 4 h.

Q: What about the Cmax ([12]; 100 mg/kg, rat PO 100 mg/kg, 10% aqueous Tween 80 suspension) of the same compound?
A: Its Cmax is 10900 ng/mL.

Q: What about the AUC [12, 26] of the same compound?
A: Its AUC is 96800 ng·h/mL.

Q: And the Tmax [12, 26]?
A: The Tmax was 4 h.

Q: And the AUC [12, 27]?
A: The AUC was 316000 ng·h/mL.

Q: What about the Cmax [12, 27] of the same compound?
A: Its Cmax is 24700 ng/mL.

Q: What about the Tmax [12, 27] of the same compound?
A: Its Tmax is 4 h.

Q: What about the “cholinergic signs or adverse events in rat dose escalation” value ([12]; result in words) of the same compound?
A: Its value is “no cholinergic signs or adverse events were noted in rats”.

Q: What about the inhibition at 10 µM [13] of the same compound?
A: Its inhibition at 10 µM is -2%.

Q: What about the inhibition at 10 µM [14] of the same compound?
A: The inhibition at 10 µM was 20%.

Q: What about the inhibition at 10 µM [15] of the same compound?
A: The inhibition at 10 µM was 6%.

Q: And the inhibition at 10 µM [16]?
A: The inhibition at 10 µM was -18%.

Q: What about the inhibition at 10 µM [17] of the same compound?
A: The inhibition at 10 µM was 21%.

Q: And the inhibition at 10 µM [18]?
A: Its inhibition at 10 µM is -9%.

Q: What about the IC50 [19] of the same compound?
A: Its IC50 is over 30 µM.

Q: And the IC50 [20]?
A: The IC50 was over 30 µM.

Q: What about the inhibition at 10 µM [21] of the same compound?
A: The inhibition at 10 µM was -10%.
